Experimental data reported in a melting point compilation (Tetko et al.).

Q: With `O=C(O)CCc1nc2cc(C(F)(F)F)ccc2n(Cc2ccccc2)c1=O` as the compound, how does the melting point read?
A: 171 to 173 °C

Q: With `Cn1cc(Br)c([N+](=O)[O-])n1` as the compound, how does the melting point read?
A: 157 to 159 °C

Q: With `COc1ccc(N2CCC2=O)cc1` as the compound, how does the melting point read?
A: 103 to 105 °C

Q: For `Cc1nnc(SCCC(=O)O)[nH]1`, which melting point is on record?
A: 131 to 133 °C

Q: Which melting point does the source give for `NC(=O)c1cc(S(=O)(=O)N2CCCC2)ccc1O` here?
A: 254 to 260 °C

Q: With `Cc1cc(N)nn1-c1ccc(Cl)cc1Cl` as the compound, how does the melting point read?
A: 101 to 103 °C

Q: For `Nc1ccccc1NC12CC3CC(CC(C3)C1)C2`, which melting point is on record?
A: 92 to 94 °C

Q: Which melting point does the source give for `COC(=O)c1cc(Cl)cc([N+](=O)[O-])c1O` here?
A: 163 to 165 °C

Q: With `O=[N+]([O-])c1ccc(Br)c2c1CNCC2` as the compound, how does the melting point read?
A: 81 to 83 °C

Q: With `CC(Cc1ccc(C(F)(F)F)cc1)C(=O)O` (stereo not drawn) as the compound, how does the melting point read?
A: 68 to 70 °C

Q: For `O=C(O)c1ccn(-c2ccc(Cl)cc2)n1`, which melting point is on record?
A: 169 to 171 °C

Q: With `COc1c(Cl)cc(Br)cc1S(N)(=O)=O` as the compound, how does the melting point read?
A: 214 to 216 °C

Q: Which melting point does the source give for `O=C(O)c1cccnc1SCc1ccc(F)cc1` here?
A: 191 to 193 °C

Q: For `N#CC1(NC(=O)CCl)CCCC1`, which melting point is on record?
A: 74 to 76 °C

Q: Which melting point does the source give for `ClCc1nnc(-c2ccc(Cl)cc2Cl)o1` here?
A: 87 to 89 °C

Q: For `Nc1ccc2c(c1)OCC(=O)N2`, which melting point is on record?
A: 217 to 219 °C

Q: Which melting point does the source give for `N#Cc1ccc(F)c(CO)c1` here?
A: 48 to 50 °C

Q: Which melting point does the source give for `Cc1cc2nnc(S)n2c(C)n1` here?
A: 250 to 252 °C

Q: With `CC(C)(C)NS(=O)(=O)Cc1cccc(C(=O)O)c1` as the compound, how does the melting point read?
A: 199 to 201 °C

Q: With `CNc1snc(C)c1C(=O)OC` as the compound, how does the melting point read?
A: 56 to 58 °C

Q: Which melting point does the source give for `O=C(O)Cc1csc(-c2ccc(Br)s2)n1` here?
A: 142 to 144 °C

Q: Which melting point does the source give for `N#CCC(=O)N1CCN(C(c2ccccc2)c2ccccc2)CC1` here?
A: 110 to 112 °C

Q: Which melting point does the source give for `Nc1cccc(Br)c1CO` here?
A: 94 to 96 °C

Q: Which melting point does the source give for `O=C(O)c1c(Cl)ccc(S(=O)(=O)Cl)c1Cl` here?
A: 168 to 170 °C

Q: Which melting point does the source give for `N#CCc1c[nH]c2cc(Cl)ccc12` here?
A: 99 to 101 °C

Q: For `Cc1ccccc1-n1cnnc1S`, which melting point is on record?
A: 144 to 146 °C

Q: Which melting point does the source give for `O=C(O)c1cc(-c2ccccc2F)nc2onc(C3CC3)c12` here?
A: 182 to 184 °C

Q: Which melting point does the source give for `O=C(O)C1(c2cccc(C(F)(F)F)c2)CCCC1` here?
A: 111 to 113 °C

Q: Which melting point does the source give for `ClCc1cn(-c2ccc(Cl)cc2)nn1` here?
A: 139 to 141 °C

Q: For `CC(C)C(NC(=O)Nc1ccccc1)C(=O)O` (stereo not drawn), which melting point is on record?
A: 140 to 142 °C

Q: With `O=C(Cc1nc2ccccc2s1)c1ccccc1` as the compound, how does the melting point read?
A: 113 to 115 °C

Q: Which melting point does the source give for `Cc1cc(C)c(C(=O)O)c(N)c1` here?
A: 103 to 105 °C

Q: Which melting point does the source give for `Nc1nc(C(=O)Nc2ccccc2)cs1` here?
A: 169 to 171 °C

Q: For `CCOC(=O)c1ncoc1-c1scnc1C`, which melting point is on record?
A: 78 to 80 °C

Q: With `O=C(O)C1CSCCS1` (stereo not drawn) as the compound, how does the melting point read?
A: 58 to 60 °C

Q: With `O=C(c1ccc(F)cc1Cl)N1CCNCC1` as the compound, how does the melting point read?
A: 75 to 77 °C

Q: With `COc1cccc(C(=O)c2c[nH]c3ncccc23)c1` as the compound, how does the melting point read?
A: 139 to 141 °C

Q: Which melting point does the source give for `COC(=O)C1CCN(S(=O)(=O)Cl)CC1` here?
A: 66 to 68 °C

Q: For `COc1ccc(Br)c(C(=O)O)c1N`, which melting point is on record?
A: 139 to 141 °C

Q: With `CCOc1cc(C(=O)N2CCCC(C(=O)O)C2)cc(OCC)c1OCC` (stereo not drawn) as the compound, how does the melting point read?
A: 183 to 185 °C

Q: With `O=C(O)c1cnn(-c2ccccc2F)c1` as the compound, how does the melting point read?
A: 160 to 162 °C

Q: For `Cc1ccc(NC(=O)CC2(C(=O)O)CCCC2)cc1`, which melting point is on record?
A: 191 to 193 °C

Q: With `O=C(CO)N1CCCc2ccccc21` as the compound, how does the melting point read?
A: 80 to 82 °C

Q: With `Nc1sc2c(c1-c1nc3ccccc3s1)CCCC2` as the compound, how does the melting point read?
A: 100 to 104 °C

Q: For `CC(Cl)C(=O)N1CC(=O)Nc2ccccc21` (stereo not drawn), which melting point is on record?
A: 139 to 141 °C

Q: With `COc1cccc(SCC(=O)O)c1` as the compound, how does the melting point read?
A: 60 to 62 °C

Q: Which melting point does the source give for `CCc1ccc(N2CCC(=O)CC2)cc1` here?
A: 43 to 45 °C

Q: For `COc1cc(C=O)cc(Cl)c1OC(F)F`, which melting point is on record?
A: 75 to 77 °C

Q: Which melting point does the source give for `Cc1ccc(N2CCOC2=O)cc1N` here?
A: 124 to 126 °C

Q: With `Cc1cc(-n2c(C)c[nH]c2=O)no1` as the compound, how does the melting point read?
A: 134 to 136 °C

Q: For `Cc1ccc(Nc2nnc(S)s2)cc1Cl`, which melting point is on record?
A: 210 to 212 °C

Q: Which melting point does the source give for `O=C(CCl)Nc1ccc(F)c(F)c1` here?
A: 106 to 108 °C

Q: For `Cc1nn2cccnc2c1C(=O)O`, which melting point is on record?
A: 176 to 178 °C

Q: For `COc1ccc(-c2nn(CCC#N)cc2/C=C(/C#N)C(=O)O)cc1`, which melting point is on record?
A: 212 to 214 °C

Q: With `Brc1ccc(SC2CCOCC2)nc1` as the compound, how does the melting point read?
A: 60 to 62 °C

Q: Which melting point does the source give for `O=C(O)c1cnoc1-c1cccs1` here?
A: 198 to 200 °C

Q: For `Fc1ccc(-n2c(S)nc3ccccc32)c(F)c1`, which melting point is on record?
A: 191 to 193 °C

Q: With `COc1cc(Br)ccc1C#N` as the compound, how does the melting point read?
A: 135 to 137 °C

Q: With `CN(C)c1cc(C(=O)O)c2ccccc2n1` as the compound, how does the melting point read?
A: 259 to 261 °C

Q: For `CC(C#N)Oc1cc(F)ccc1N` (stereo not drawn), which melting point is on record?
A: 89 to 91 °C

Q: With `OC(c1ccc[nH]1)C(F)(F)F` (stereo not drawn) as the compound, how does the melting point read?
A: 47 to 49 °C

Q: Which melting point does the source give for `COc1cc(NC(=O)C2CC2)c(C(=O)O)cc1OC` here?
A: 236 to 238 °C

Q: Which melting point does the source give for `Cc1cc(Cl)c(N)c(C(=O)O)c1` here?
A: 201 to 203 °C

Q: Which melting point does the source give for `COc1cc2c(cc1OC)C(c1ccccc1)N(C(=O)CCl)CC2` (stereo not drawn) here?
A: 218 to 222 °C

Q: For `CC1(C)OC(=O)c2c1ccnc2Cl`, which melting point is on record?
A: 158 to 160 °C

Q: Which melting point does the source give for `Cc1cccc(OC(C)C(=O)O)c1` (stereo not drawn) here?
A: 85 to 87 °C

Q: For `O=C(Nc1ccsc1C(=O)O)c1ccncc1`, which melting point is on record?
A: 230 to 232 °C

Q: For `CCc1ccc(C(N)=S)cc1`, which melting point is on record?
A: 47 to 51 °C

Q: With `Cc1cc(C(=O)O)nn1-c1ccc(F)cc1` as the compound, how does the melting point read?
A: 152 to 154 °C

Q: With `O=C(O)c1csc(-c2cc3ccccc3o2)n1` as the compound, how does the melting point read?
A: 242 to 244 °C

Q: With `O=C(O)C1CCCN1C(=O)c1cccs1` (stereo not drawn) as the compound, how does the melting point read?
A: 145 to 147 °C

Q: With `Brc1ccc2ncnc(N3CCNCC3)c2c1` as the compound, how does the melting point read?
A: 99 to 101 °C

Q: With `O=C(O)CCNC(=O)c1ccc(F)cc1Cl` as the compound, how does the melting point read?
A: 141 to 143 °C
